Laboratory results reported in ChEMBL document CHEMBL4813930, “Cytotoxic Manoalide-Type Sesterterpenes from the Sponge Luffariella variabilis Collected in the South China Sea” (J Nat Prod, 2021).

Legend:
L02 = assay: Cytotoxicity against human L02 cells by SRB assay; type: cell-based
ASPC1 = assay: Cytotoxicity against human ASPC1 cells by SRB assay; type: functional, cell-based
K562 = assay: Cytotoxicity against human K562 cells by MTT assay; type: functional, cell-based
MDA-MB-231 = assay: Cytotoxicity against human MDA-MB-231 cells by SRB assay; type: functional, cell-based
[1] = Cytotoxicity against human NCI-H69AR cells by SRB assay; type: functional, cell-based

## COC(=O)Cc1cc(CC/C=C(\C)CC/C=C(\C)CCC=C(C)C)ccc1O
L02
  IC50: > 30 µM
ASPC1
  IC50: > 30 µM
K562
  IC50: 15 µM
MDA-MB-231
  IC50: > 30 µM
[1]
  IC50: > 30 µM

## COc1cccc2c1C(=O)c1c(O)c3c(c(O)c1C2=O)C[C@@](O)(C(=O)CO)C[C@@H]3O[C@H]1C[C@H](N)[C@H](O)[C@H](C)O1 [DOXORUBICIN]
L02
  IC50: < 1 µM
ASPC1
  IC50: < 1 µM
K562
  IC50: < 1 µM
MDA-MB-231
  IC50: < 1 µM
[1]
  IC50: < 1 µM
